Measured values from US10329309B2, “3-(3H-imidazo[4,5-B]pyridin-2-yl)-1H-pyrazolo[4,3-B]pyridines and therapeutic uses thereof” (Samumed, LLC, priority 2015, dated 2019).

Assays:
[1] = tested on: primary human mesenchymal stem cells (hMSCs); assay: Induction of chondrogenesis in primary human mesenchymal stem cells (nodule imaging, Rhodamine B/Nile Red); type: cell-based; conditions: hMSC chondrogenesis; for Emax: TGF-β3 as positive control, read-out: Max. Activity as % TGF-β3 activity; for EC50: concentration required to induce 50% levels of chondrogenesis vs TGF-β3, read-out: Conc (nM) of 50% TGF-β3 activity
Experimental: Representative compounds were screened using primary human mesenchymal stem cells (hMSCs) to determine their ability to induce chondrogenesis (process by which cartilage is developed).
Primary human mesenchymal stem cells (hMSCs) were purchased from Lonza (Walkersville, Md.) and expanded in Mesenchymal Stem Cell Growth Media (Lonza). Cells between passage 3 and 6 were used for the experiments.
Each compound was dissolved in DMSO as a 10 mM stock and used to prepare compound source plates. For the 96 well assay, serial dilution (1:3, 6-point dose-response curves from 2700 nM to 10 nM) and compound transfer was performed using the ECHO 550 (Labcyte, Sunnyvale, Calif.) into 96-well clear bottom assay plates (Greiner Bio-One) with appropriate DMSO backfill for a final DMSO concentration of 0.03%. hMSCs were plated at 20,000 cells/well in 250 μL/well Incomplete Chondrogenic Induction Medium (Lonza; DMEM, dexamethasone, ascorbate, insulin-transferrin-selenium [ITS supplement], gentamycin-amphotericin [GA-1000], sodium pyruvate, proline and L-glutamine). TGF-−3 (10 ng/mL) was used as a positive control for differentiation while negative control wells were treated with 75 nL DMSO for normalization and calculating EC50 values. For the 384 well assay, serial dilution (1:3, 8-point dose-response curves from 5000 nM to 2.2 nM) and compound transfer was performed using the ECHO 550 (Labcyte, Sunnyvale, Calif.) into 384-well clear bottom assay plates (Greiner Bio-One) with appropriate DMSO backfill for a final DMSO concentration of 0.03%. hMSCs were plated at 8,000 cells/well in 80 μL/well Incomplete Chondrogenic Induction Medium (Lonza; DMEM, dexamethasone, ascorbate, insulin-transferrin-selenium [ITS supplement], gentamycin-amphotericin [GA-1000], sodium pyruvate, proline and L-glutamine). TGF-β3 (10 ng/mL) was used as a positive control for differentiation while negative control wells were treated with 25 nL DMSO for normalization and calculating EC50 values. Cells were incubated at 37° C. and 5% CO2 for 6 days. To image chondrogenic nodules, the cells were fixed using 4% formaldehyde (Electron Microscopy Sciences), and stained with 2 μg/mL Rhodamine B (Sigma-Aldrich) and 20 μM Nile Red (Sigma-Aldrich) [Johnson K., et. al, A Stem Cell-Based Approach to Cartilage Repair, Science, (2012), 336(6082), 717-721]. The nodules imaged (25 images per well for 96 well plates and 9 images per well for 384 well plates at 10× magnification) by excitation at 531 nm and emission at 625 nm and quantified using the CellInsight CX5 (Thermo Scientific). Area of nodules in each well was normalized to the average of 3 DMSO treated wells on the same plate using Excel (Microsoft Inc.). The normalized averages (fold change over DMSO) of 2 or 3 replicate wells for each compound concentration were calculated. Due to solubility limitations of some of the compounds, curve fitting was incomplete leading to inaccurate EC50 determinations.
Using TGF-β3 as a positive control, the concentration of representative compounds required to induce 50% levels of chondrogenesis is reported. In addition, the maximum activity of each compound and the respective dose that each compound reached maximum chondrogenesis activity is reported.

[2] = tested on: primary human fibroblasts derived from IPF patients (LL29 cells), α-smooth muscle actin (αSMA); assay: Inhibition of the fibrotic process: TGF-β1-treated primary human fibroblasts from IPF patients, αSMA staining; type: cell-based; conditions: Fibroblast, 96 h, 4 days; for EC50: LL29 fibroblasts from IPF patients, TGF-β1 20 ng/mL, inhibition of fibrotic process; for inhibition at 10 µM: LL29 fibroblasts, TGF-β1 treated, read-out: percent inhibition at 10 μM (given for EC50 of >10 μM)
Outline: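 Compound dilutions from 10 μM down to […] are dispensed, LL29 cells added in F12 with 1% FBS, and TGF-β1 (20 ng/mL) follows after 1 h. After 4 days, live-cell αSMA positivity is measured by immunofluorescence and normalized to TGF-β1-treated wells to derive EC50.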

## CC(C)CC(=O)Nc1cncc(-c2ccc3[nH]nc(-c4nc5c(-c6cccc(F)c6)ccnc5[nH]4)c3n2)c1 [Compound 2, N-(5-(3-(7-(3-fluorophenyl)-3H-imidazo[4,5-b]pyridin-2-yl)-1H-pyrazolo [4,3-b]pyridin-5-yl)pyridin-3-yl)-3-methylbutanamide]
[1]
  Emax: 56%
  EC50: 21 nM
[2]
  EC50: 292 nM

## CN(C)c1cncc(-c2ccc3[nH]nc(-c4nc5c(-c6cccc(F)c6)ccnc5[nH]4)c3n2)c1 [Compound 7, 5-(3-(7-(3-fluorophenyl)-3H-imidazo[4,5-b]pyridin-2-yl)-1H-pyrazolo[4,3-b]pyridin-5-yl)-N,N-dimethylpyridin-3-amine]
[1]
  Emax: 84%
  EC50: 10 nM
[2]
  EC50: 2170 nM

## CN(C)Cc1cncc(-c2ccc3[nH]nc(-c4nc5c(-c6cccc(F)c6)ccnc5[nH]4)c3n2)c1 [Compound 13, 1-(5-(3-(7-(3-fluorophenyl)-3H-imidazo[4,5-b]pyridin-2-yl)-1H-pyrazolo [4,3-b]pyridin-5-yl)pyridin-3-yl)-N,N-dimethylmethanamine]
[1]
  Emax: 29%
[2]
  EC50: 1440 nM

## Fc1ccc(-c2ccnc3[nH]c(-c4n[nH]c5ccc(-c6cncc(CN7CCCC7)c6)nc45)nc23)cc1 [Compound 42, 3-(7-(4-fluorophenyl)-3H-imidazo[4,5-b]pyridin-2-yl)-5-(5-(pyrrolidin-1-ylmethyl)pyridin-3-yl)-1H-pyrazolo[4,3-b]pyridine]
[1]
  Emax: 17%
[2]
  EC50: 1850 nM

## O=C(Nc1cncc(-c2ccc3[nH]nc(-c4nc5c(-c6ccc(F)cc6)ccnc5[nH]4)c3n2)c1)C1CCC1 [Compound 49, N-(5-(3-(7-(4-fluorophenyl)-3H-imidazo[4,5-b]pyridin-2-yl)-1H-pyrazolo [4,3-b]pyridin-5-yl)pyridin-3-yl)cyclobutanecarboxamide]
[1]
  Emax: 69%
  EC50: 30 nM
[2]
  EC50: 1370 nM

## CC(C)(C)CC(=O)Nc1cncc(-c2ccc3[nH]nc(-c4nc5c(-c6ccccc6F)ccnc5[nH]4)c3n2)c1 [Compound 72, N-(5-(3-(7-(2-fluorophenyl)-3H-imidazo[4,5-b]pyridin-2-yl)-1H-pyrazolo [4,3-b]pyridin-5-yl)pyridin-3-yl)-3,3-dimethylbutanamide]
[2]
  EC50: > 10000 nM
  inhibition at 10 µM: 0%

## Fc1ccccc1-c1ccnc2[nH]c(-c3n[nH]c4ccc(-c5ccccn5)nc34)nc12 [Compound 84, 3-(7-(2-Fluorophenyl)-3H-imidazo[4,5-b]pyridin-2-yl)-5-(pyridin-2-yl)-1H-pyrazolo[4,3-b]pyridine]
[2]
  EC50: > 10000 nM
  inhibition at 10 µM: 29.4%

## c1cncc(-c2ccc3[nH]nc(-c4nc5c(-c6cccnc6)ccnc5[nH]4)c3n2)c1 [Compound 88, 5-(pyridin-3-yl)-3-(7-(pyridin-3-yl)-3H-imidazo[4,5-b]pyridin-2-yl)-1H-pyrazolo [4,3-b]pyridine]
[1]
  Emax: 95%
  EC50: 300 nM
[2]
  EC50: 747 nM

## CC(C)Nc1cncc(-c2ccc3[nH]nc(-c4nc5c(-c6cccnc6)ccnc5[nH]4)c3n2)c1 [Compound 96, N-isopropyl-5-(3-(7-(pyridin-3-yl)-3H-imidazo[4,5-b]pyridin-2-yl)-1H-pyrazolo[4,3-b]pyridin-5-yl)pyridin-3-amine]
[1]
  Emax: 113%
  EC50: 10 nM
[2]
  EC50: 1760 nM

## O=C(Nc1cncc(-c2ccc3[nH]nc(-c4nc5c(N6CCCCC6)ccnc5[nH]4)c3n2)c1)C1CC1 [Compound 188, N-(5-(3-(7-(Piperidin-1-yl)-3H-imidazo[4,5-b]pyridin-2-yl)-1H-pyrazolo [4,3-b]pyridin-5-yl)pyridin-3-yl)cyclopropanecarboxamide]
[2]
  EC50: > 10000 nM
  inhibition at 10 µM: 0%

## Cc1ccncc1-c1ccc2[nH]nc(-c3nc4c(-c5ccsc5)ccnc4[nH]3)c2n1 [Compound 285, 5-(4-methylpyridin-3-yl)-3-(7-(thiophen-3-yl)-3H-imidazo[4,5-b]pyridin-2-yl)-1H-pyrazolo[4,3-b]pyridine]
[1]
  Emax: 33%
[2]
  EC50: 2050 nM

## O=C(Nc1cncc(-c2ccc3[nH]nc(-c4nc5c(-c6ccsc6)ccnc5[nH]4)c3n2)c1)c1ccccc1 [Compound 291, N-(5-(3-(7-(Thiophen-3-yl)-3H-imidazo[4,5-b]pyridin-2-yl)-1H-pyrazolo [4,3-b]pyridin-5-yl)pyridin-3-yl)benzamide]
[2]
  EC50: > 10000 nM
  inhibition at 10 µM: 42.5%

## CCCC(=O)Nc1cncc(-c2ccc3[nH]nc(-c4nc5c(-c6ccsc6)ccnc5[nH]4)c3n2)c1 [Compound 297, N-(5-(3-(7-(thiophen-3-yl)-3H-imidazo[4,5-b]pyridin-2-yl)-1H-pyrazolo[4,3-b]pyridin-5-yl)pyridin-3-yl)butyramide]
[1]
  Emax: 40%
[2]
  EC50: 410 nM

## FC1(F)CCN(Cc2cncc(-c3ccc4[nH]nc(-c5nc6c(-c7ccsc7)ccnc6[nH]5)c4n3)c2)C1 [Compound 306, 5-(5-((3,3-difluoropyrrolidin-1-yl)methyl)pyridin-3-yl)-3-(7-(thiophen-3-yl)-3H-imidazo[4,5-b]pyridin-2-yl)-1H-pyrazolo[4,3-b]pyridine]
[1]
  Emax: 77%
  EC50: 30 nM
[2]
  EC50: 165 nM

## O=C(Nc1cncc(-c2ccc3[nH]nc(-c4nc5c(-c6cccs6)ccnc5[nH]4)c3n2)c1)C1CC1 [Compound 356, N-(5-(3-(7-(Thiophen-2-yl)-3H-imidazo[4,5-b]pyridin-2-yl)-1H-pyrazolo [4,3-b]pyridin-5-yl)pyridin-3-yl)cyclopropanecarboxamide]
[2]
  EC50: 4860 nM

## CS(=O)(=O)NCc1cc(F)cc(-c2ccnc3[nH]c(-c4n[nH]c5ccc(-c6cncc(CNCc7ccccc7)c6)nc45)nc23)c1 [Compound 500, N-(3-(2-(5-(5-((Benzylamino)methyl)pyridin-3-yl)-1H-pyrazolo[4,3-b]pyridin-3-yl)-3H-imidazo[4,5-b]pyridin-7-yl)-5-fluorobenzyl)methanesulfonamide]
[2]
  EC50: 9260 nM

## Fc1cccc(-c2ccnc3[nH]c(-c4n[nH]c5ccc(-c6cncc(OCCN7CCCC7)c6)nc45)nc23)c1 [Compound 514, 3-(7-(3-Fluorophenyl)-3H-imidazo[4,5-b]pyridin-2-yl)-5-(5-(2-(pyrrolidin-1-yl)ethoxy)pyridin-3-yl)-1H-pyrazolo[4,3-b]pyridine]
[2]
  EC50: > 10000 nM
  inhibition at 10 µM: 0%

## COc1cccc(-c2ccnc3[nH]c(-c4n[nH]c5ccc(-c6cncc(NC(=O)CC(C)(C)C)c6)nc45)nc23)c1 [Compound 1006, N-(5-(3-(7-(3-methoxyphenyl)-3H-imidazo[4,5-b]pyridin-2-yl)-1H-pyrazolo[4,3-b]pyridin-5-yl)pyridin-3-yl)-3,3-dimethylbutanamide]
[2]
  EC50: 2490 nM

## COc1cccc(-c2ccnc3[nH]c(-c4n[nH]c5ccc(-c6cncc(NC(=O)C7CCCCC7)c6)nc45)nc23)c1 [Compound 1012, N-(5-(3-(7-(3-Methoxyphenyl)-3H-imidazo[4,5-b]pyridin-2-yl)-1H-pyrazolo [4,3-b]pyridin-5-yl)pyridin-3-yl)cyclohexanecarboxamide]
[2]
  EC50: 1170 nM

## NC1CN(c2cncc(-c3ccc4[nH]nc(-c5nc6c(-c7ccc(Cl)s7)ccnc6[nH]5)c4n3)n2)C1 [Compound 1068, 1-(6-(3-(7-(5-Chlorothiophen-2-yl)-3H-imidazo[4,5-b]pyridin-2-yl)-1H-pyrazolo[4,3-b]pyridin-5-yl)pyrazin-2-yl)azetidin-3-amine]
[2]
  EC50: 938 nM
